Assay results as given in the NIST ThermoML archive (doi:10.1021/je049777o).
“And” between values parts separate entries of the source, which are not always exact repeats. Identical values can stand only once.

How the values were obtained:
[1] = 101.3 kPa, Liquid
[2] = xn = mol fraction of the nth substance listed; settings: 101.3 kPa, Liquid

CCCCCC [hexane]
[1]
Settings	mass density [kg/m3]	viscosity [mPa·s]
293.15 K	662	0.302
298.15 K	657.44	0.2886
303.15 K	652.87	0.2774
313.15 K	643.55	0.2504
323.15 K	634.07	0.2339
333.15 K	624.39	0.2114

CCCCCC [hexane] + COC(=O)OC
[2], x2 = 0
Settings	mass density [kg/m3]	viscosity [mPa·s]
293.15 K	662	0.302
298.15 K	657.44	0.2886
303.15 K	652.87	0.2774
313.15 K	643.55	0.2504
323.15 K	634.07	0.2339
333.15 K	624.39	0.2114

COC(=O)OC [dimethyl carbonate] + Clc1ccccc1
[2], x1 = 1
Settings	mass density [kg/m3]	viscosity [mPa·s]
293.15 K	1069.54	0.6163
298.15 K	1062.95	0.5771
303.15 K	1056.35	0.5433
313.15 K	1043.01	0.482
323.15 K	1029.59	0.4319
333.15 K	1016	0.3893
343.15 K	1002.32	0.3527

Clc1ccccc1 [chlorobenzene]
[1]
Settings	mass density [kg/m3]	viscosity [mPa·s]
293.15 K	1106.74	0.8084
298.15 K	1101.33	0.7422
303.15 K	1095.96	0.7053
313.15 K	1085.06	0.631
323.15 K	1074.26	0.5677
333.15 K	1063.32	0.5069
343.15 K	1052.44	0.4658

CCCCCCC [heptane]
[1]
Settings	mass density [kg/m3]	viscosity [mPa·s]
293.15 K	687.14	0.4038
298.15 K	682.91	0.3831
303.15 K	678.61	0.3629
313.15 K	669.91	0.3274
323.15 K	661.16	0.298
333.15 K	652.26	0.2704
343.15 K	643.31	0.2487

CCCCCCC [heptane] + COC(=O)OC
[2], x2 = 0
Settings	mass density [kg/m3]	viscosity [mPa·s]
293.15 K	687.14	0.4038
298.15 K	682.91	0.3831
303.15 K	678.61	0.3629
313.15 K	669.91	0.3274
323.15 K	661.16	0.298
333.15 K	652.26	0.2704
343.15 K	643.31	0.2487

COC(=O)OC [dimethyl carbonate]
[1]
Settings	mass density [kg/m3]	viscosity
293.15 K	1069.54	0.6163 mPa·s and 0.6173 mPa·s
298.15 K	1062.95	0.5771 mPa·s and 0.5734 mPa·s
303.15 K	1056.35	0.5433 mPa·s and 0.5403 mPa·s
313.15 K	1043.01	0.482 mPa·s and 0.4807 mPa·s
323.15 K	1029.59	0.4319 mPa·s and 0.427 mPa·s
333.15 K	1016	0.3893 mPa·s
343.15 K	1002.32	0.3527 mPa·s
